{"source": "patent US20170273922A1", "about": "“UREA AND BIS-UREA BASED COMPOUNDS AND ANALOGUES THEREOF USEFUL IN THE TREATMENT OF ANDROGEN RECEPTOR MEDIATED DISEASES OR DISORDERS” (THE ROYAL INSTITUTION FOR THE ADVACEMENT OF LEARNING/MCGILL …, priority 2014, published 2017)", "key": {"[1]": {"test_system": "endogenous AR-Vs in 22Rv1 cells", "test": "PSA-luc reporter assay in androgen-starved 22Rv1 cells (endogenous LBD-truncated AR variants)", "conditions": "androgen-starved 3 days, 24 h exposure", "protocol": "NT, LNCaP cells were transiently transfected with pIRES vector, PSA-luc and pRL-TK. […] Cells were then transiently transfected with PSA-Luc and pRL-TK and exposed to DMSO or compounds for 24 h, in triplicate. NT, not transfected with PSA-luc.\nThe ARs were probed by N-terminal directed AR antibody (N20, Santa Cruz); B) The 22Rv1 cells were androgen-starved (in phenol red-free medium+10% CS-FBS) for 3 days to ensure the full-length AR expressed in 22Rv1 are not activated. The 22Rv1 cells were subsequently co-transfected with PSA-luc and pRL-TK plasmids. […] Cells in phenol red-free medium+10% CS-FBS were exposed to DMSO or compounds for 24 h and harvested for Western blot analysis.\nThe cells were androgen-starved for 3 days and transfected with PSA-Luc and pRL-TK plasmids. NT, cells were transfected with empty vector. Cells were exposed to vehicle control or compounds for 24 h."}, "LNCaP cells": {"test_system": "LNCaP cells", "test": "MTT assay (cytotoxicity), LNCaP cells", "format": "cell-based", "conditions": "LNCaP cells, 72 h, Table 4.2", "summary_of_the_method": "(§1)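 Following overnight attachment at 6-7×10^3 cells per well, cultures receive compound for 72 h in serum-containing (10% FBS) RPMI 1640. MTT then quantifies surviving cells, with each experiment done in triplicate and repeated at least twice.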"}, "[2]": {"target": "T1, H874Y mutant of full-length AR (Homo sapiens, UniProt P10275, H875Y)", "T1 sequence (P10275 1-920 H875Y)": "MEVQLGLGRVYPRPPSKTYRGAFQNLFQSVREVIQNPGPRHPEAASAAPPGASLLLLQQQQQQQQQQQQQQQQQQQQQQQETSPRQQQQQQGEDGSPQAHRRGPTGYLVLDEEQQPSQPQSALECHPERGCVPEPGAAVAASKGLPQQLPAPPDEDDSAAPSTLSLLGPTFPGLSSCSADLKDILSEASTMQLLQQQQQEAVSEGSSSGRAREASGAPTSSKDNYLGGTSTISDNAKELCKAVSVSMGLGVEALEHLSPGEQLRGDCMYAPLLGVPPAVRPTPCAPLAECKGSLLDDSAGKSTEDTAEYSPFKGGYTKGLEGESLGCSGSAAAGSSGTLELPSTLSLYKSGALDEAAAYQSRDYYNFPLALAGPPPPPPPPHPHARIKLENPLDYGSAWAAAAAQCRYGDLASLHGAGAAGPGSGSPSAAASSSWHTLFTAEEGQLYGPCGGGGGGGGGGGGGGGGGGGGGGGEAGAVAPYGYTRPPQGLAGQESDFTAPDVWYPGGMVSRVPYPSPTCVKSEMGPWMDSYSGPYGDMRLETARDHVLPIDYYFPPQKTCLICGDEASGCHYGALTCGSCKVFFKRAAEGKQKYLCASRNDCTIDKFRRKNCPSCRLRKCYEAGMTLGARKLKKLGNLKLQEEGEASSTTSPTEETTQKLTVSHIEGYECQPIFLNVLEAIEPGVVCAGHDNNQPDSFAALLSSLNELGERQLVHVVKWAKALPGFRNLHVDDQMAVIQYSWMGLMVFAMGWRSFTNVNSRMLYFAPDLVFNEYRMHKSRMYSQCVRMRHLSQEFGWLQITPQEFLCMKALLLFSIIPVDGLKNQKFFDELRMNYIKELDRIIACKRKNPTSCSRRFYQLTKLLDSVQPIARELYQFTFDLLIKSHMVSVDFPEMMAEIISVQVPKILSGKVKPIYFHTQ", "test": "AR H874Y mutant PSA-luc reporter assay in PC3 cells", "format": "cell-based", "conditions": "for inhibition of DHT-induced transactivation of H874Y mutant AR (PSA-luc): 10 nM DHT, PC3 cells, 24 h"}, "[3]": {"test": "MTT assay (cytotoxicity), LNCaP cells", "format": "cell-based", "conditions": "human, LNCaP cells", "summary_of_the_method": "as §1"}, "[4]": {"target": "T2, Progesterone receptor (PR) (Homo sapiens, UniProt P06401)", "T2 construct": "expressed in transfected cells; host or cells: PC3", "T2 sequence (P06401 1-933)": "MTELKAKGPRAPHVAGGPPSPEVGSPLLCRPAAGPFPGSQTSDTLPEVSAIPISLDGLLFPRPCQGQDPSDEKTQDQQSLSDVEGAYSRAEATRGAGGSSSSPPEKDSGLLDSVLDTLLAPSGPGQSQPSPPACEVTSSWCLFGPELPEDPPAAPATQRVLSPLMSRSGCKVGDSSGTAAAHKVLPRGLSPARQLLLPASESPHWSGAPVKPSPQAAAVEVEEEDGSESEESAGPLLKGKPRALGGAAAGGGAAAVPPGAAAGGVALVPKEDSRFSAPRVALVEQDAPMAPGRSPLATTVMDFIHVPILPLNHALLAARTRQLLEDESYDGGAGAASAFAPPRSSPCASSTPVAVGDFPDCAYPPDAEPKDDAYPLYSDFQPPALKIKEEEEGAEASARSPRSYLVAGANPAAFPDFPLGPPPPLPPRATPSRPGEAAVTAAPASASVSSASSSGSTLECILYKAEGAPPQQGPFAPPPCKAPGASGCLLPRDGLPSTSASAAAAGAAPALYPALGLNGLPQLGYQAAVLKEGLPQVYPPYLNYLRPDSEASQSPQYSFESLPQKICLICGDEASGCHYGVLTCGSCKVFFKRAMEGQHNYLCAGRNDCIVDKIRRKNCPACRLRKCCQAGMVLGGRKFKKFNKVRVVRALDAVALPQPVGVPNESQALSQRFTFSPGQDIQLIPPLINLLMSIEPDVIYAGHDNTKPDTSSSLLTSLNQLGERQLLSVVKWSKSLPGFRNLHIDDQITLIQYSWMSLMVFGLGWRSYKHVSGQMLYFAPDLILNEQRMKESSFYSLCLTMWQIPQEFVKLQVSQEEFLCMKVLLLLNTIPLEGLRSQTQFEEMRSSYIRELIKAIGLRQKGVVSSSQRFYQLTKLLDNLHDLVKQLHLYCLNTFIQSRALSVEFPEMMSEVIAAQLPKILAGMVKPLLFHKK", "test": "PR MMTV-luc reporter assay in PC3 cells", "format": "cell-based", "set-up": "interference with transcriptional activity of PR: dose or concentration left out as unconfirmed", "conditions": "for effect on PR transcriptional activation (MMTV-luc): 10 nM R5020, PC3 cells, 24 h"}}, "note": "Entries after “also recorded” stand apart in the source; their conditions may differ."}
{"smiles": "N#Cc1ccc(NC(=O)Nc2cccc(C(F)(F)F)c2)cc1C(F)(F)F", "note": "[Compound 467]", "values": [{"measurement": "activity against constitutive activation of endogenous AR-Vs in 22Rv1 cells (PSA-luc)", "setting": "[1]", "result": "significantly suppressed; also recorded: active"}, {"measurement": "IC50", "setting": "LNCaP cells", "result": 0.9, "unit": "µM"}, {"measurement": "agonism of AR H874Y mutant", "setting": "[2]", "result": "non-agonist"}, {"measurement": "inhibition of DHT-induced transactivation of H874Y mutant AR (PSA-luc)", "setting": "[2]", "result": "dose-dependently suppressed; also recorded: dose-dependently inhibit"}]}
{"smiles": "O=C(Nc1ccc(Br)nc1)Nc1cc(C(F)(F)F)cc(C(F)(F)F)c1", "note": "[Compound 566]", "values": [{"measurement": "activity against constitutive activation of endogenous AR-Vs in 22Rv1 cells (PSA-luc)", "setting": "[1]", "result": "active; also recorded: greater inhibitory activity than EPI-001"}, {"measurement": "IC50 at 72 h", "setting": "[3]; 72 h, Table 4.1", "result": 0.8, "unit": "µM"}, {"measurement": "interference with transcriptional activity of PR", "setting": "[4]", "result": "do not interfere"}, {"measurement": "effect on PR transcriptional activation (MMTV-luc)", "setting": "[4]", "result": "do not interfere"}]}
{"smiles": "O=C(N/C=C/c1cccc(C(F)(F)F)c1)Nc1ccncn1", "note": "[Compound 562]", "values": [{"measurement": "activity against constitutive activation of endogenous AR-Vs in 22Rv1 cells (PSA-luc)", "setting": "[1]", "result": "remain active; also recorded: greater inhibitory activity than EPI-001"}, {"measurement": "IC50 at 72 h", "setting": "[3]; 72 h, Table 2.1", "result": 4.4, "unit": "µM"}, {"measurement": "inhibition of DHT-induced transactivation of H874Y mutant AR (PSA-luc)", "setting": "[2]", "result": "inhibit"}, {"measurement": "interference with transcriptional activity of PR", "setting": "[4]", "result": "do not interfere"}, {"measurement": "effect on PR transcriptional activation (MMTV-luc)", "setting": "[4]", "result": "do not interfere; also recorded: selective towards the AR"}]}
{"smiles": "O=C(Nc1cccc(C(F)(F)F)c1)Nc1ccc(NC(=O)c2ccccc2F)c(C(F)(F)F)c1", "note": "[Compound 746]", "values": [{"measurement": "activity against constitutive activation of endogenous AR-Vs in 22Rv1 cells (PSA-luc)", "setting": "[1]", "result": "remain active; also recorded: greater inhibitory activity than EPI-001"}, {"measurement": "IC50 at 72 h", "setting": "[3]; 72 h treatment, Table 6.1", "result": 1, "unit": "µM"}, {"measurement": "inhibition of DHT-induced transactivation of H874Y mutant AR (PSA-luc)", "setting": "[2]", "result": "inhibit"}, {"measurement": "interference with transcriptional activity of PR", "setting": "[4]", "result": "do not interfere"}, {"measurement": "effect on PR transcriptional activation (MMTV-luc)", "setting": "[4]", "result": "do not interfere; also recorded: selective towards the AR"}]}
{"smiles": "O=C(Nc1cccc(C(F)(F)F)c1)Nc1ccc([N+](=O)[O-])c(C(F)(F)F)c1", "note": "[Compound 442]", "values": [{"measurement": "activity against constitutive activation of endogenous AR-Vs in 22Rv1 cells (PSA-luc)", "setting": "[1]", "result": "significantly suppressed; also recorded: active"}, {"measurement": "IC50", "setting": "LNCaP cells", "result": 0.5, "unit": "µM"}, {"measurement": "agonism of AR H874Y mutant", "setting": "[2]", "result": "non-agonist"}, {"measurement": "inhibition of DHT-induced transactivation of H874Y mutant AR (PSA-luc)", "setting": "[2]", "result": "dose-dependently suppressed; also recorded: dose-dependently inhibit"}]}
{"smiles": "N#Cc1ccc(NC(=O)Nc2cccc(C(F)(F)F)c2)cc1Cl", "note": "[Compound 492]", "values": [{"measurement": "IC50", "setting": "LNCaP cells", "result": 0.8, "unit": "µM"}, {"measurement": "agonism of AR H874Y mutant", "setting": "[2]", "result": "non-agonist"}, {"measurement": "inhibition of DHT-induced transactivation of H874Y mutant AR (PSA-luc)", "setting": "[2]", "result": "dose-dependently suppressed; also recorded: dose-dependently inhibit"}]}
